Experiments:
[1] = molecular target: T1, human Factor Xa (Homo sapiens, UniProt P00742); experiment: Factor Xa assay (Pefachrome Xa substrate); format: biochemical; conditions: 30 min preincubation, room temperature; tested 0.025-25 μM; Inact. = no inhibition at highest concentration
T1 construct: 50 μL 30 nM human Factor Xa
Method: (§1) The specificity of the peptide aldehydes (8 through 12) was determined in vitro by measurement of their IC50 against other enzymes involved in hemostasis. A specific concentration of enzyme and its substrate were challenged with varying concentrations of inhibitor. […] Specific assay procedures used are presented below.
(§2) 96-well microtiter plates were prepared for use in these assays by incubating each well with 300 μL 1% bovine serum albumin (in deionized water) for 30 minutes at 37° C., then washing three times with deionized water.
Enzyme activity was determined using as substrate, Pefachrome Xa [N-methoxycarbonyl-D-cyclohexylalanyl-L-glycyl-L-arginine p-niroanilide acetate], purchased from Centerchem, Inc. The substrate was made up in deionized water prior to use.

[2] = molecular target: T2, bovine thrombin (Bos taurus, UniProt P00735); experiment: Thrombin assay (S-2238 substrate); format: biochemical; conditions: 30 min preincubation, room temperature; tested 0.025-25 μM; Inact. = no inhibition at highest concentration
T2 construct: 50 μL 20 nM bovine thrombin
Method: (§3) The specificity of the peptide aldehydes (8 through 12) was determined in vitro by measurement of their IC50 against other enzymes involved in hemostasis. A specific concentration of enzyme and its substrate were challenged with varying concentrations of inhibitor. IC50 is that concentration of inhibitor giving 50% inhibition of substrate turnover, under the assay conditions. Specific assay procedures used are presented below.
as §2
Enzyme activity was determined using as substrate, S-2238 [D-phenylalanyl-L-pipecolyl-L-arginine-p-nitroanilide dihydrochloride], purchased from Kabi Diagnostica. The substrate was made up in deionized water prior to use.
The assay was run by combining in appropriate wells 50 μL TBS and 50 μL inhibitor in TBS or TBS alone and 50 μL 20 nM bovine thrombin (or TBS as background control), incubating this mixture for 30 minutes at room temperature, adding 50 μL 1 mM S-2238, incubating for an additional 30 minutes at room temperature, then reading the absorbance of the wells at 405 nm on a microtiter plate reader set with background substraction at 650 nm.

[3] = molecular target: recombinant tissue plasminogen activator (Homo sapiens, UniProt P00750); experiment: Tissue plasminogen activator assay (S-2288 substrate); format: biochemical; conditions: 30 min preincubation, room temperature; tested 0.025-25 μM; Inact. = no inhibition at highest concentration
Method: as §1, §2
(§4) The substrate was made up in deionized water prior to use.

[4] = molecular target: T3, Factor VIIa:rTF complex (Homo sapiens, UniProt P08709); experiment: Factor VIIa assay (S-2288 substrate); format: biochemical; conditions: 30 min preincubation, room temperature; tested 0.025-25 μM; Inact. = no inhibition at highest concentration
T3 construct: 2.5 ml 400 nMhuman Factor VIIa
Method: as §3, §2
Enzyme activity was determined using as substrate, S-2288 [D-isoleucyl-L-prolyl-L-arginine-p-nitroanilide dihydrochloride], purchased from Kabi Diagnostica. The substrate was made up in deionized water prior to use.
Both solutions were then incubated for 30 minutes at room temperature before use in the assay.
The assay was run by combining in appropriate wells 50 μL inhibitor in TBS or TBS alone and 100 μL of Factor VIIa:rTF complex or background control, incubating this mixture for 30 minutes at room temperature, adding 50 μL of 2 mM S-2288, incubating for an additional 30 to 60 minutes at room temperature, then reading the absorbance of the wells at 405 nm on a microtiter plate reader set with background substraction at 650 nm.

[5] = test system: acute pancreatitis induced in animal models; conditions: literature reports; cited from earlier work
[6] = molecular target: plasmin (Homo sapiens, UniProt P00747); experiment: Plasmin assay (S-2251 substrate); format: biochemical; design: 50 μL 25 nM human plasmin; conditions: 30 min preincubation, room temperature; tested 0.025-25 μM; Inact. = no inhibition at highest concentration
Method: as §1, §2, §4

[7] = molecular target: T4, Activated human Protein C (Homo sapiens, UniProt P04070); experiment: Protein C assay (Pefachrome PC substrate); format: biochemical; conditions: 30 min preincubation, room temperature; tested 0.025-25 μM; Inact. = no inhibition at highest concentration
T4 construct: from tissue
Method: as §1, §2
Enzyme activity was determined using as substrate, Pefachrome PC [δ-carbobenzoloxy-D-lysyl-L-prolyl-L-arginine-p-nitroanilide], purchased from Centerchem, Inc. The substrate was made up in deionized water prior to use. Protac used to activate Protein C was obtained from American Diagnostics.

[8] = molecular target: T5, bovine trypsin (Bos taurus, UniProt P00760); experiment: Trypsin assay, IC50 (S-2222 substrate); format: biochemical; conditions: 30 min preincubation, room temperature; tested 0.025-25 μM
T5 sequence (P00760 24-246): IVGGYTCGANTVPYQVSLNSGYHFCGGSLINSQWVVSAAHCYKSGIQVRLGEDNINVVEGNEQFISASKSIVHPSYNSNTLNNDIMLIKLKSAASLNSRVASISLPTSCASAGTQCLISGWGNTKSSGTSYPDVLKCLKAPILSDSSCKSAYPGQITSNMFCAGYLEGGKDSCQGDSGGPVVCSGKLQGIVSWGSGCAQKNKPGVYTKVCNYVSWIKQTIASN
Method: as §1, §2, §4

[9] = test system: trypsin; conditions: literature (Saino et al.); cited from earlier work
[10] = molecular target: trypsin; conditions: literature (Jones); read-out: dissociation constant (Kd) trypsin; cited from earlier work
[11] = molecular target: kallikrein; conditions: literature; cited from earlier work
[12] = test system: human acute pancreatitis; conditions: literature reports; cited from earlier work

T3 sequence (P08709 213-466 limits assumed): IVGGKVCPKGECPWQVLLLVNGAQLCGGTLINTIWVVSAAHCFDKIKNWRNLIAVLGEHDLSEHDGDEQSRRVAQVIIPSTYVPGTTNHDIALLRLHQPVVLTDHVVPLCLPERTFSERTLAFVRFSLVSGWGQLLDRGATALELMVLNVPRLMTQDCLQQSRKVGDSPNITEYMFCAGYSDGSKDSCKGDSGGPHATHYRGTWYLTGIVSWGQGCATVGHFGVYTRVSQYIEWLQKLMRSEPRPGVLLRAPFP
T3 sequence (P08709 61-212 partner limits assumed): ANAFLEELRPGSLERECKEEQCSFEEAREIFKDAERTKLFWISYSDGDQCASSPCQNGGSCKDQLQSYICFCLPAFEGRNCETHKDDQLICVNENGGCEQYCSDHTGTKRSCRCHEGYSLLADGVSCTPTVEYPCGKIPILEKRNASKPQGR
T3 sequence (P13726 33-295 partner): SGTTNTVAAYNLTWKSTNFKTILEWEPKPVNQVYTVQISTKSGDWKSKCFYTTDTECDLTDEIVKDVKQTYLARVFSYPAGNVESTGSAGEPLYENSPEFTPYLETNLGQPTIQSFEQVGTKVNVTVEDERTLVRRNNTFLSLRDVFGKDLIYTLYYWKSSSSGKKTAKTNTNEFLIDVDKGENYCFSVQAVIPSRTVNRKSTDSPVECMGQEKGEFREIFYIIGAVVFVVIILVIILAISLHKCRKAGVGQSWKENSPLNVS
recombinant tissue plasminogen activator, sequence (P00750 36-562): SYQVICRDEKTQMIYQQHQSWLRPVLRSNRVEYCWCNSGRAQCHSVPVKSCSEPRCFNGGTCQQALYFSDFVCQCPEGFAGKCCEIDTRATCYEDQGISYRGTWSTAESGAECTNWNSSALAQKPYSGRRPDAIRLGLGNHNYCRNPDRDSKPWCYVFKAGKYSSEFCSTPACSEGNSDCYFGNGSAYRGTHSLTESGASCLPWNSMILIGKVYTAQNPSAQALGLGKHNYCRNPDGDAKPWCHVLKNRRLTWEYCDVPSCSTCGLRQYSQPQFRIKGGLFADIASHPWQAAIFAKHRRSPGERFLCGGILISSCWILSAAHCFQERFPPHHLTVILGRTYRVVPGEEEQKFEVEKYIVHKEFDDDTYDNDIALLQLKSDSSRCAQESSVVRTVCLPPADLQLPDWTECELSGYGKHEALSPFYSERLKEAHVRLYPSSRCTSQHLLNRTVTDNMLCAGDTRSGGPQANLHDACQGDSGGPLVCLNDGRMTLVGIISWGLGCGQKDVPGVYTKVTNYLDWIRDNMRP
T1 sequence (P00742 235-488 limits assumed): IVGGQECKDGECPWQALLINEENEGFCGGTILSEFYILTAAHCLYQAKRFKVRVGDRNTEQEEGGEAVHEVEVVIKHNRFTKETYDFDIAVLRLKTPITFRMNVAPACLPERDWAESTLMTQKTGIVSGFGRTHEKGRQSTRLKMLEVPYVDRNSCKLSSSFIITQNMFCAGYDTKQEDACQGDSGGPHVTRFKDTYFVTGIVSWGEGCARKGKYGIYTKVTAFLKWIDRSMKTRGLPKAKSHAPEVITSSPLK
T1 sequence (P00742 41-179 partner limits assumed): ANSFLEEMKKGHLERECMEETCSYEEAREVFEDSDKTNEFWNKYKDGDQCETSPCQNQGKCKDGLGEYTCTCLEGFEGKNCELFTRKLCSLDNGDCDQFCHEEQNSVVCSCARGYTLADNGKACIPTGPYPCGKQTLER
T4 sequence (P04070 212-461 limits assumed): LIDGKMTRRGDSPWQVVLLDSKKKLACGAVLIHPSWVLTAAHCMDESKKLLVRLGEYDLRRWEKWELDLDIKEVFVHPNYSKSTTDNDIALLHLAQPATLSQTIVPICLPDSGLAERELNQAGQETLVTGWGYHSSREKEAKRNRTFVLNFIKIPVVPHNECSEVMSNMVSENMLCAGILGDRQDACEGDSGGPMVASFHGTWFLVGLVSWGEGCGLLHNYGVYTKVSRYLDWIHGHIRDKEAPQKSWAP
T4 sequence (P04070 43-197 partner limits assumed): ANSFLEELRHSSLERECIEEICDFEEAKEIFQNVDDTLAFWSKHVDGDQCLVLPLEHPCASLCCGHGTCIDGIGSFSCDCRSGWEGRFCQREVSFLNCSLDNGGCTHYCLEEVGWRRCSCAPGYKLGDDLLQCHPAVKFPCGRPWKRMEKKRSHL
plasmin, sequence (P00747 581-810 limits assumed): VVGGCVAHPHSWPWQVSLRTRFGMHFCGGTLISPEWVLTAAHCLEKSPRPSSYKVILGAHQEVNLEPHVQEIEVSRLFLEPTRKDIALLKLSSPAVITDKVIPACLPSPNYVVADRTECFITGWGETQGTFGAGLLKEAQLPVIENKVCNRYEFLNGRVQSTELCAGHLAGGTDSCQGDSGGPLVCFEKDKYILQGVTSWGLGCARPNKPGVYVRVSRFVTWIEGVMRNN
plasmin, sequence (P00747 97-580 partner limits assumed): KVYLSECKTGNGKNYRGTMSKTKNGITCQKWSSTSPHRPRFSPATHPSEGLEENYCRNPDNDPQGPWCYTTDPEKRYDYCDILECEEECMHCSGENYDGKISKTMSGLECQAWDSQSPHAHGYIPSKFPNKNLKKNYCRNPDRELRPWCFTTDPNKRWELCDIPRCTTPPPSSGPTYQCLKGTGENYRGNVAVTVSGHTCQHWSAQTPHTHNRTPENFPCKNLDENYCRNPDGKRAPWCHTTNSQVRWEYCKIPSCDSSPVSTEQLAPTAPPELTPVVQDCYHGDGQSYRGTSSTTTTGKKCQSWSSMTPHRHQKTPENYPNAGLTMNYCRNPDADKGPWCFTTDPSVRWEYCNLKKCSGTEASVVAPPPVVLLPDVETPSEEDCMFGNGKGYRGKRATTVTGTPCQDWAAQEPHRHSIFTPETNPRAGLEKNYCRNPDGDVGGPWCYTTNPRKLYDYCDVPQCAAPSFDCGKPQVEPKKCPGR

| IC50 Xa [1] | IC50 Thrombin [2] | IC50 tPA [3] | Molecule | IC50 [1] [µM] | IC50 [2] [µM] | IC50 [3] [µM] | IC50 [4] [µM] | efficacy in the treatment of acute pancreatitis induced in animal models [5] | IC50 [6] [µM] | IC50 [7] [µM] | IC50 [8] [µM] | IC50 against trypsin, times lower than that for N-acetyl-L-leucyl-L-leucy-L-argininal [9] | Kd [10] [pM] | Kd [11] [µM] | efficacy in the treatment of human acute pancreatitis [12] |
| --- | --- | --- | --- | --- | --- | --- | --- | --- | --- | --- | --- | --- | --- | --- | --- |
| – | – | – | CCOC(=O)c1ccc(OC(=O)CCCCCN=C(N)N)cc1.CS(=O)(=O)O [FOY, gabexate mesilate, reference compound] | 8 | 6 | 9 | > 25 | effective to varying degrees | 1.6 | 15 | 0.25 | – | – | – | – |
| – | – | – | CC(C)C[C@H](NC(=O)[C@@H]1CCC(=O)N1C(=O)OCc1ccccc1)C(=O)N[C@H](C=O)CCCNC(=N)N [N-benzyloxycarbonyl-L-pyroglutamyl-L-leucyl-L-argininal] | – | – | – | – | – | – | – | – | about 7 times | – | – | – |
| Inact. | Inact. | Inact. | Aprotinin [reference compound] | – | – | – | > 25 | – | – | 2 | – | – | 30 | 0.1 | ineffective |

Source: patent publication US5534498A, “Trypsin inhibitors” (Corvas International, Inc., priority 1993, dated 1996)
